Patent US20230066011A1, “PYRROLOPYRIMIDINE DERIVATIVE, AND PHARMACEUTICAL COMPOSITION FOR PREVENTING OR TREATING PROTEIN KINASE-RELATED DISEASE COMPRISING SAME AS ACTIVE INGREDIENT” (VORONOI CO., LTD., priority 2019, published 2023)

Experiments:
human GST-DYRK1A = target: T1, human GST-DYRK1A (Homo sapiens, UniProt Q13627); assay: GST-DYRK1A enzyme inhibition, ADP-Glo kinase assay; assay type: biochemical; settings: ATP 10 μM, GST-DYRK1A full length, read-out: DYRK1 IC50
T1 construct: purified human GST-DYRK1A (full length, Thermo Scientifics) enzyme; purchased Thermo Scientifics
Summary of the method: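 Full-length enzyme (10 ng) was incubated with 10 μM ATP and a specific substrate for 1 h at 25 °C in 40 mM Tris-HCl pH 7.4, 20 mM MgCl2, 0.5 mg/mL BSA, 50 μM DTT. Luminescence was read against a solvent control, and IC50 values were derived from 3 data sets.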

human GST-CLK1 = target: T2, human GST-CLK1 (Homo sapiens, UniProt P49759); assay: GST-CLK1 enzyme inhibition, ADP-Glo kinase assay; assay type: biochemical; settings: ATP 10 μM, GST-CLK1 129-end
T2 construct: purified human GST-CLK1 (129-end, SignalChem) enzyme; purchased SignalChem
Summary of the method: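 ADP-Glo luminescence read-out, relative to untreated solvent control, gave IC50 (nM) from triplicate data sets. Reactions ran an hour at 25° C with 3 ng GST-CLK1 (residues 129-end), 10 μM ATP and specific substrate in Tris-HCl pH 7.4 buffer with MgCl2, BSA and DTT.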

T2 sequence (P49759 129-484 limits assumed): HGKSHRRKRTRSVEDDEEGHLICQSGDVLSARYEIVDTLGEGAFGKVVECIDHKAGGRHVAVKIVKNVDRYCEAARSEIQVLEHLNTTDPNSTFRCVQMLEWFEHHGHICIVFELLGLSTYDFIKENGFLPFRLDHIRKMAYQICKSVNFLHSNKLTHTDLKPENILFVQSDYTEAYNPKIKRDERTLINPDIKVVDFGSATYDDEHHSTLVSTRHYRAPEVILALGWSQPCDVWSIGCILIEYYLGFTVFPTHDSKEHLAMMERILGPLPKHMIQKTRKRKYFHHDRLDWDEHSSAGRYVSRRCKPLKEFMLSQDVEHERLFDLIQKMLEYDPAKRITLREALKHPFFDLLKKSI

| SMILES | IC50 (human GST-DYRK1A) | IC50 (human GST-CLK1) |
| --- | --- | --- |
| CCNc1nc(Nc2ccc(C(=O)N3CCN(C4COC4)CC3)c3c2OCCO3)nc2[nH]cc(C#N)c12 [Example 281, 4-(ethylamino)-2-((8-(4-(oxetan-3-yl)piperazine-1-carobnyl)-2,3-dihydrobenzo[b][1,4]dioxin-5-yl)amino)-7H-pyrrolo[2,3-d]pyrimidine-5-carbonitrile] | 101 to 300 nM | < 100 nM |
| CCCNc1nc(Nc2ccc(P3(=O)CCN(C4CC4)CC3)cc2OC)nc2[nH]cc(C#N)c12 [Example 282, 2-((4-(1-cyclopropyl-4-oxido-1,4-azaphosphinan-4-yl)-2-methoxyphenyl)amino)-4-(propylamino)-7H-pyrrolo[2,3-d]pyrimidine-5-carbonitrile] | 301 to 1000 nM | 101 to 300 nM |
| CCCNc1nc(Nc2ccc(P3(=O)CCN(C4COC4)CC3)cc2OC)nc2[nH]cc(C#N)c12 [Example 283, 2-((2-methoxy-4-(1-(oxetan-3-yl)-4-oxido-1,4-azaphosphinan-4-yl)phenyl)amino)-4-(propylamino)-7H-pyrrolo[2,3-d]pyrimidine-5-carbonitrile] | 301 to 1000 nM | 101 to 300 nM |
| COc1cc(P2(=O)CCN(C3CC3)CC2)ccc1Nc1nc(NC2CC2)c2c(C#N)c[nH]c2n1 [Example 285, 2-((4-(1-cyclopropyl-4-oxido-1,4-azaphosphinan-4-yl)-2-methoxyphenyl)a-mino)-4-(cyclo-propylamino)-7H-pyrrolo[2,3-d]pyrimidine-5-carbonitrile] | 301 to 1000 nM | 101 to 300 nM |
| COc1cc(P2(=O)CCN(C3COC3)CC2)ccc1Nc1nc(NC2CC2)c2c(C#N)c[nH]c2n1 [Example 286, 4-(cyclo-propylamino)-2-((2-methoxy-4-(1-(oxetna-3-yl)-4-oxido-1,4-azaphosphinan-4-yl)phenyl)amino)-7H-pyrrolo[2,3-d]pyrimidine-5-carbonitrile] | 301 to 1000 nM | < 100 nM |
| N#Cc1c[nH]c2nc(Nc3ccc(C(=O)N4CCN(C5COC5)CC4)c4c3OCCO4)nc(NC3CC3)c12 [Example 287, 4-(cyclo-propylamino)-2-((8-(4-(oxetan-3-yl)piperazine-1-carbonyl)-2,3-dihydrobenzo[b] [1,4]dioxin-5-yl)amino)-7H-pyrrolo[2,3-d]pyrimidine-5-carbonitrile] | 301 to 1000 nM | < 100 nM |
| COc1cc(P2(=O)CCN(C3CC3)CC2)ccc1Nc1nc(NCC(C)C)c2c(C#N)c[nH]c2n1 [Example 290, 2-((4-(1-cyclopropyl-4-oxido-1,4-azaphosphinan-4-yl)-2-methoxyphenyl)a-mino)-4-(isobutylamino)-7H-pyrrolo[2,3-d]pyrimidine-5-carbonitrile] | 301 to 1000 nM | 301 to 1000 nM |
| COc1cc(P2(=O)CCN(C3COC3)CC2)ccc1Nc1nc(NCC(C)C)c2c(C#N)c[nH]c2n1 [Example 291, 4-(isobutyl-amino)-2-((2-methoxy-4-(1-(oxetan-3-yl)-4-oxido-1,4-azaphosphinan-4-yl)phenyl)amino)-7H-pyrrolo[2,3-d]pyrimidine-5-carbonitrile] | 301 to 1000 nM | 101 to 300 nM |
| COc1cc(P2(=O)CCN(C3COC3)CC2)ccc1Nc1nc(NC(C)C)c2c(C#N)c[nH]c2n1 [Example 293, 4-(isopropylamino)-2-((2-methoxy-4-(1-(oxetan-3-yl)-4-oxido-1,4-azaphosphinan-4-yl)phenyl)amino)-7H-pyrrolo[2,3-d]pyrimidine-5-carbonitrile] | 101 to 300 nM | < 100 nM |
| CC[C@@H](C)Nc1nc(Nc2ccc(P3(=O)CCN(C4CC4)CC3)cc2OC)nc2[nH]cc(C#N)c12 [Example 294, (R)-4-(sec-butylamino)-2-((4-(1-cyclopropyl-4-oxido-1,4-azaphosphinan-4-yl)-2-methoxyphenyl)a-mino)-7H-pyrrolo[2,3-d]pyrimidine-5-carbonitrile] | 301 to 1000 nM | < 100 nM |
| CC[C@H](C)Nc1nc(Nc2ccc(P3(=O)CCN(C4CC4)CC3)cc2OC)nc2[nH]cc(C#N)c12 [Example 296, (S)-4-(sec-butylamino)-2-((4-(1-cyclopropyl-4-oxido-1,4-azaphosphinan-4-yl)-2-methoxyphenyl)a-mino)-7H-pyrrolo[2,3-d]pyrimidine-5-carbonitrile] | 301 to 1000 nM | 301 to 1000 nM |
| COc1cc(P2(=O)CCN(C3COC3)CC2)ccc1Nc1nc(N[C@@H]2CCOC2)c2c(C#N)c[nH]c2n1 [Example 299, (R)-2-((2-methoxy-4-(1-(oxetan-3-yl)-4-oxido-1,4-azaphosphinan-4-yl)phenyl)amino)-4-((tetrahydrofuran-3-yl)amino)-7H-pyrrolo[2,3-d]pyrimidine-5-carbonitrile] | 301 to 1000 nM | 101 to 300 nM |
| COc1cc(P2(=O)CCN(C3CC3)CC2)ccc1Nc1nc(N[C@H]2CCOC2)c2c(C#N)c[nH]c2n1 [Example 300, (S)-2-((4-(1-cyclopropyl-4-oxido-1,4-azaphosphinan-4-yl)-2-methoxyphenyl)a-mino)-4-((tetrahydrofuran-3-yl)amino)-7H-pyrrolo[2,3-d]pyrimidine-5-carbonitrile] | 301 to 1000 nM | < 100 nM |
| COc1cc(P2(=O)CCN(C3COC3)CC2)ccc1Nc1nc(N[C@H]2CCOC2)c2c(C#N)c[nH]c2n1 [Example 301, (S)-2-((2-methoxy-4-(1-(oxetan-3-yl)-4-oxido-1,4-azaphosphinan-4-yl)phenyl)amino)-4-((tetrahydrofuran-3-yl)amino)-7H-pyrrolo[2,3-d]pyrimidine-5-carbonitrile] | 301 to 1000 nM | < 100 nM |
| COc1cc(P2(=O)CCN(C3CC3)CC2)ccc1Nc1nc(NC2CCOCC2)c2c(C#N)c[nH]c2n1 [Example 302, 2-((4-(1-cyclopropyl-4-oxido-1,4-azaphosphinan-4-yl)-2-methoxyphenyl)a-mino)-4-((tetrahydro-2H-pyran-4-yl)amino)-7H-pyrrolo[2,3-d]pyrimidine-5-carbonitrile] | 301 to 1000 nM | 301 to 1000 nM |
| COc1cc(P2(=O)CCN(C3COC3)CC2)ccc1Nc1nc(NC2CCOCC2)c2c(C#N)c[nH]c2n1 [Example 303, 2-((2-methoxy-4-(1-(oxetan-3-yl)-4-oxido-1,4-azaphosphinan-4-yl)phenyl)amino)-4-((tetrahydro-2H-pyran-4-yl)amino)-7H-pyrrolo[2,3-d]pyrimidine-5-carbonitrile] | 301 to 1000 nM | 301 to 1000 nM |
| COc1cc(P2(=O)CCN(C3CC3)CC2)ccc1Nc1nc(NCC2CC2)c2c(C#N)c[nH]c2n1 [Example 304, 2-((4-(1-cyclopropyl-4-oxido-1,4-azaphosphinan-4-yl)-2-methoxyphenyl)a-mino)-4-((cyclo-propylmeth-yl)amino)-7H-pyrrolo[2,3-d]pyrimidine-5-carbonitrile] | 301 to 1000 nM | 301 to 1000 nM |

Next, values leading:

| IC50 (human GST-DYRK1A) | IC50 (human GST-CLK1) | SMILES |
| --- | --- | --- |
| 301 to 1000 nM | < 100 nM | CCCNc1nc(Nc2ccc(C(=O)N3CCN(C4COC4)CC3)c3c2OCCO3)nc2[nH]cc(C#N)c12 [Example 284, 2-((8-(4-(oxetan-3-yl)piperazine-1-carbonyl)-2,3-dihydrobenzo[b] [1,4]dioxin-5-yl)amino)-4-(propylamino)-7H-pyrrolo[2,3-d]pyrimidine-5-carbonitrile] |
| 301 to 1000 nM | < 100 nM | COc1cc(P2(=O)CCN(C3CC3)CC2)ccc1Nc1nc(NC(C)C)c2c(C#N)c[nH]c2n1 [Example 292, 2-((4-(1-cyclopropyl-4-oxido-1,4-azaphosphinan-4-yl)-2-methoxyphenyl)a-mino)-4-(isopropylamino)-7H-pyrrolo[2,3-d]pyrimidine-5-carbonitrile] |
| 301 to 1000 nM | < 100 nM | CC[C@@H](C)Nc1nc(Nc2ccc(P3(=O)CCN(C4COC4)CC3)cc2OC)nc2[nH]cc(C#N)c12 [Example 295, (R)-4-(sec-butylamino)-2-((2-methoxy-4-(1-(oxetan-3-yl)-4-oxido-1,4-azaphosphinan-4-yl)phenyl)amino)-7H-pyrrolo[2,3-d]pyrimidine-5-carbonitrile] |
| 301 to 1000 nM | 101 to 300 nM | CC[C@H](C)Nc1nc(Nc2ccc(P3(=O)CCN(C4COC4)CC3)cc2OC)nc2[nH]cc(C#N)c12 [Example 297, (S)-4-(sec-butylamino)-2-((2-methoxy-4-(1-(oxetan-3-yl)-4-oxido-1,4-azaphosphinan-4-yl)phenyl)amino)-7H-pyrrolo[2,3-d]pyrimidine-5-carbonitrile] |
| 301 to 1000 nM | 301 to 1000 nM | COc1cc(P2(=O)CCN(C3CC3)CC2)ccc1Nc1nc(N[C@@H]2CCOC2)c2c(C#N)c[nH]c2n1 [Example 298, (R)-2-((4-(1-cyclopropyl-4-oxido-1,4-azaphosphinan-4-yl)-2-methoxyphenyl)a-mino)-4-((tetrahydrofuran-3-yl)amino)-7H-pyrrolo[2,3-d]pyrimidine-5-carbonitrile] |
| 101 to 300 nM | < 100 nM | COc1cc(P2(=O)CCN(C3COC3)CC2)ccc1Nc1nc(NCC2CC2)c2c(C#N)c[nH]c2n1 [Example 305, 4-((cyclo-propylmeth-yl)amino)-2-((2-methoxy-4-(1-(oxetan-3-yl)-4-oxido-1,4-azaphosphinan-4-yl)phenyl)amino)-7H-pyrrolo[2,3-d]pyrimidine-5-carbonitrile] |
| 301 to 1000 nM | 301 to 1000 nM | COc1cc(P2(=O)CCN(C3CC3)CC2)ccc1Nc1nc(NCC2CCC2)c2c(C#N)c[nH]c2n1 [Example 306, 4-((cyclo-butylmethyl)amino)-2-((4-(1-cyclopropyl-4-oxido-1,4-azaphosphinan-4-yl)-2-methoxyphenyl)a-mino)-7H-pyrrolo[2,3-d]pyrimidine-5-carbonitrile] |
